These results are taken from patent US6689392B2, “Methods and compositions for controlling plant pathogen” (Agricare Ltd., priority 2001, dated 2004).

Assay [1] deals with P. infestans. Type of assay: in vivo, Phytophthora infestans. Also on record: ED90: unit not given beside the values.
Assay [2] deals with P. infestans. The class given is cell-based, Phytophthora infestans. The arrangement: unit not given beside the values.
The test system of assay [3] is P. infestans. Type of assay: in vivo, Phytophthora infestans. Also on record: unit not given beside the values. Conditions: POTATO; Table 2.
Assay [4] deals with P. infestans. Type of assay: in vivo, Phytophthora infestans. The arrangement: unit not given beside the values. The conditions noted are these: TOMATO; Table 2.
For the next assay, the system named is Pythium aphanidermatum. Put plainly: Pythium aphanidermatum mycelial growth in vitro. The class given is cell-based. Conditions: recommended dosage of 0.07% of active ingredient; 24 hr, 25° C.; FIG. 6.
For the next assay, the system named is P. aphanidermatum. Put plainly: Pythium damping-off disease in cucumber seedlings. Type of assay: in vivo, Pythium aphanidermatum. Conditions: drench at 0.07% of active ingredient, after 10 days, FIG. 7.

Read-outs that look alike come from different tables or passages of the source.

Take `OP(O)O` [H3PO3, Phosphorous Acid]: the “Inhibition (% of control)” value in the assay on P. infestans [1] (Tomato, 0.01% active ingredient, Table 4) is given as 13 % of control; in the assay on P. infestans [1] (Tomato, 0.02% active ingredient, Table 4), 13 % of control; in the assay on P. infestans [1] (Tomato, 0.05% active ingredient, Table 4) it was 19 % of control; in the assay on P. infestans [1] (Tomato, 0.1% active ingredient, Table 4), 31 % of control. Also, the ED90 in the assay on P. infestans [1] (in vivo) amounted to 2.52; with P. infestans [2], 45.
Take Potassium Phosphite [K3PO3]: the “Inhibition (% of control)” value in the assay on P. infestans [1] (Tomato, 0.12% active ingredient, Table 3) was 50 % of control; with P. infestans [1] (Tomato, 0.25% active ingredient, Table 3), 63 % of control; in the assay on P. infestans [1] (Tomato, 0.5% active ingredient, Table 3), 86 % of control; with P. infestans [1] (Tomato, 1.0% active ingredient, Table 3) it was 98 % of control. The ED90 in the assay with P. infestans [1] (Tomato, Table 3) is reported as 0.55; in the assay with P. infestans [2] (tomato leaf discs, Table 1), 130; with P. infestans [3], 0.52; in the assay with P. infestans [4], 1.10.
Regarding `CCO[PH](=O)O` [Fosetyl-Al], in the assay with Pythium aphanidermatum, the “inhibition of radial growth in vitro” value is given as 50%. For the same molecule, the “plants survived in Pythium-inoculated flats” value with P. aphanidermatum was 70-80%.
